Assay results reported in ChEMBL document CHEMBL3885881, “DrugMatrix”.

Organism: Rattus norvegicus
Assay: DrugMatrix - Regimen: Daily Repeat
Format: toxicity, organism-based, Sprague-Dawley
Parameters: regimen Daily Repeat, gender Male, age 6-8 weeks
Settings: in vivo, po, route oral GAVAGE, vehicle .5 % CMC; for ABSOLUTE BASOPHIL / ABSOLUTE EOSINOPHIL / ABSOLUTE LYMPHOCYTE / ABSOLUTE MONOCYTE / ABSOLUTE SEGMENTED NEUTROPHIL / BASOPHIL / EOSINOPHIL / ERYTHROCYTE COUNT / HEMATOCRIT / HEMOGLOBIN / LEUKOCYTE COUNT / LYMPHOCYTE / MEAN CORPUSCULAR HEMOGLOBIN / MEAN CORPUSCULAR HEMOGLOBIN CONCENTRATION / MEAN CORPUSCULAR VOLUME / MONOCYTE / NEUTROPHIL / NUCLEATED RED BLOOD CELLS / PLATELET COUNT: tissue Blood; for ALANINE AMINOTRANSFERASE / ALBUMIN / ALKALINE PHOSPHATASE / ASPARTATE AMINOTRANSFERASE / BLOOD UREA NITROGEN / CARBON DIOXIDE / CHLORIDE / CHOLESTEROL / CREATINE PHOSPHOKINASE / CREATININE / GLUCOSE / LACTATE DEHYDROGENASE / LIPASE / PHOSPHORUS / POTASSIUM / SODIUM / TOTAL BILIRUBIN / TOTAL PROTEIN / URIC ACID: tissue Plasma
[1] = 100 mg/kg, 120 h, dose level Low, time 5 day
[2] = 2500 mg/kg, 72 h, dose level High, time 3 day
[3] = 2500 mg/kg, 120 h, dose level High, time 5 day

`COC1=C(OC)C(=O)C(CCCCCCCCCCO)=C(C)C1=O` [IDEBENONE] was tested, and the “ABSOLUTE BASOPHIL” value [1] was 0 CELLS/uL, the “ABSOLUTE EOSINOPHIL” value [1] was 0 CELLS/uL and the “ABSOLUTE LYMPHOCYTE” value [1] was 14055 CELLS/uL. For the same molecule, the “ABSOLUTE MONOCYTE” value [1] was 144.33 CELLS/uL, the “ABSOLUTE SEGMENTED NEUTROPHIL” value [1] was 1000.67 CELLS/uL and the BASOPHIL [1] was 0%. The EOSINOPHIL [1] was 0%, the “ERYTHROCYTE COUNT” value [1] was 5.62 x10E6/uL and the HEMATOCRIT [1] was 35.7%. The HEMOGLOBIN [1] was 14.47 G/DL, the “LEUKOCYTE COUNT” value [1] was 15.2 x10E3/uL and the LYMPHOCYTE [1] was 92.33%. For the same molecule, the “MEAN CORPUSCULAR HEMOGLOBIN” value [1] was 25.8 pg, the “MEAN CORPUSCULAR HEMOGLOBIN CONCENTRATION” value [1] was 40.57 G/DL and the “MEAN CORPUSCULAR VOLUME” value [1] was 63.63 fL. The MONOCYTE [1] was 1%, the NEUTROPHIL [1] was 6.67% and the “NUCLEATED RED BLOOD CELLS” value [1] was 0.33 /100WBC. For the same molecule, the “PLATELET COUNT” value [1] was 1018.67 x10E3/uL, the “ALANINE AMINOTRANSFERASE” value [1] was 63.67 u/L and the ALBUMIN [1] was 4.47 G/DL. The “ALKALINE PHOSPHATASE” value [1] was 410 u/L, the “ASPARTATE AMINOTRANSFERASE” value [1] was 93 u/L and the “BLOOD UREA NITROGEN” value [1] was 16 mg/dL. For the same molecule, the “CARBON DIOXIDE” value [1] was 32.33 mmol/L, the CHLORIDE [1] was 102.67 MEQ/L and the CHOLESTEROL [1] was 71.67 mg/dL. For the same molecule, the “CREATINE PHOSPHOKINASE” value [1] was 369.33 u/L, the CREATININE [1] was 0.13 mg/dL and the GLUCOSE [1] was 152.33 mg/dL. The “LACTATE DEHYDROGENASE” value [1] was 136 u/L, the LIPASE [1] was 10.33 u/L and the PHOSPHORUS [1] was 11.63 mg/dL. For the same molecule, the POTASSIUM [1] was 6.29 MEQ/L, the SODIUM [1] was 145.4 MEQ/L and the “TOTAL BILIRUBIN” value [1] was 0.13 mg/dL. The “TOTAL PROTEIN” value [1] was 6.13 G/DL, the “URIC ACID” value [1] was 1.03 mg/dL and the “ABSOLUTE BASOPHIL” value [2] was 0 CELLS/uL. The “ABSOLUTE EOSINOPHIL” value [2] was 0 CELLS/uL, the “ABSOLUTE LYMPHOCYTE” value [2] was 12762.67 CELLS/uL and the “ABSOLUTE MONOCYTE” value [2] was 85.33 CELLS/uL. The “ABSOLUTE SEGMENTED NEUTROPHIL” value [2] was 1385.33 CELLS/uL, the BASOPHIL [2] was 0% and the EOSINOPHIL [2] was 0%. The “ERYTHROCYTE COUNT” value [2] was 5.73 x10E6/uL, the HEMATOCRIT [2] was 36.83% and the HEMOGLOBIN [2] was 14 G/DL. For the same molecule, the “LEUKOCYTE COUNT” value [2] was 14.23 x10E3/uL, the LYMPHOCYTE [2] was 89.33% and the “MEAN CORPUSCULAR HEMOGLOBIN” value [2] was 24.43 pg. The “MEAN CORPUSCULAR HEMOGLOBIN CONCENTRATION” value [2] was 38 G/DL, the “MEAN CORPUSCULAR VOLUME” value [2] was 64.3 fL and the MONOCYTE [2] was 0.67%. For the same molecule, the NEUTROPHIL [2] was 10%, the “NUCLEATED RED BLOOD CELLS” value [2] was 0.33 /100WBC and the “PLATELET COUNT” value [2] was 1207.33 x10E3/uL. For the same molecule, the “ALANINE AMINOTRANSFERASE” value [2] was 63.67 u/L, the ALBUMIN [2] was 4.23 G/DL and the “ALKALINE PHOSPHATASE” value [2] was 312.33 u/L. The “ASPARTATE AMINOTRANSFERASE” value [2] was 80.67 u/L, the “BLOOD UREA NITROGEN” value [2] was 13.67 mg/dL and the “CARBON DIOXIDE” value [2] was 32.33 mmol/L. The CHLORIDE [2] was 103.67 MEQ/L, the CHOLESTEROL [2] was 71.33 mg/dL and the “CREATINE PHOSPHOKINASE” value [2] was 242.67 u/L. For the same molecule, the CREATININE [2] was 0.15 mg/dL, the GLUCOSE [2] was 157.67 mg/dL and the “LACTATE DEHYDROGENASE” value [2] was 80.67 u/L. For the same molecule, the LIPASE [2] was 11 u/L, the PHOSPHORUS [2] was 10.1 mg/dL and the POTASSIUM [2] was 6.3 MEQ/L. The SODIUM [2] was 144.83 MEQ/L, the “TOTAL BILIRUBIN” value [2] was 0.17 mg/dL and the “TOTAL PROTEIN” value [2] was 5.33 G/DL. For the same molecule, the “URIC ACID” value [2] was 1.27 mg/dL, the “ABSOLUTE BASOPHIL” value [3] was 0 CELLS/uL and the “ABSOLUTE EOSINOPHIL” value [3] was 79.33 CELLS/uL. The “ABSOLUTE LYMPHOCYTE” value [3] was 11851 CELLS/uL, the “ABSOLUTE MONOCYTE” value [3] was 40.67 CELLS/uL and the “ABSOLUTE SEGMENTED NEUTROPHIL” value [3] was 1262.33 CELLS/uL. For the same molecule, the BASOPHIL [3] was 0%, the EOSINOPHIL [3] was 0.67% and the “ERYTHROCYTE COUNT” value [3] was 5.54 x10E6/uL. For the same molecule, the HEMATOCRIT [3] was 33.87%, the HEMOGLOBIN [3] was 13.77 G/DL and the “LEUKOCYTE COUNT” value [3] was 13.23 x10E3/uL. The LYMPHOCYTE [3] was 89.33%, the “MEAN CORPUSCULAR HEMOGLOBIN” value [3] was 24.87 pg and the “MEAN CORPUSCULAR HEMOGLOBIN CONCENTRATION” value [3] was 40.67 G/DL. For the same molecule, the “MEAN CORPUSCULAR VOLUME” value [3] was 61.17 fL, the MONOCYTE [3] was 0.33% and the NEUTROPHIL [3] was 9.67%. The “NUCLEATED RED BLOOD CELLS” value [3] was 0 /100WBC, the “PLATELET COUNT” value [3] was 1402 x10E3/uL and the “ALANINE AMINOTRANSFERASE” value [3] was 63 u/L. The ALBUMIN [3] was 4.47 G/DL, the “ALKALINE PHOSPHATASE” value [3] was 280.33 u/L and the “ASPARTATE AMINOTRANSFERASE” value [3] was 108 u/L. The “BLOOD UREA NITROGEN” value [3] was 18.33 mg/dL, the “CARBON DIOXIDE” value [3] was 30 mmol/L and the CHLORIDE [3] was 101.33 MEQ/L. The CHOLESTEROL [3] was 63.33 mg/dL, the “CREATINE PHOSPHOKINASE” value [3] was 512 u/L and the CREATININE [3] was 0.19 mg/dL. For the same molecule, the GLUCOSE [3] was 146.67 mg/dL, the “LACTATE DEHYDROGENASE” value [3] was 149.33 u/L and the LIPASE [3] was 8.67 u/L. For the same molecule, the PHOSPHORUS [3] was 9.97 mg/dL, the POTASSIUM [3] was 6.03 MEQ/L and the SODIUM [3] was 145.03 MEQ/L. The “TOTAL BILIRUBIN” value [3] was 0.23 mg/dL, the “TOTAL PROTEIN” value [3] was 6.1 G/DL and the “URIC ACID” value [3] was 0.9 mg/dL.
